The record followed here is patent US20250188492A1, “Enhanced Transfer of Genetic Instructions to Effector Immune Cells” (Janssen Biotech, Inc., priority 2022, published 2025).

Each structure is given as a SMILES string.

Format in all cases: cell-based
One test deals with primary γδ T cells. The experiment in a line: Frequency of Vγ9Vδ2 subset of primary γδ T cells pre-treated with statin (flow cytometry). The following applies: different concentrations, compared to lentiviral vector only at 0 statin concentration, FIGS. 11A-11B. As for the experimental part: Next, the effect of pre-treatment with statin in lentiviral transduction of primary γδ T cells on the frequency of Vγ9Vδ2 T cell subset within the γδ T cells was evaluated. Three primary γδ T cells samples from healthy donors were expanded with Zol for five days, pre-treated in the presence or absence of Rosuvastatin or Atorvastatin at different concentrations, as described above, and evaluated for Vγ9Vδ2 expression, using flow cytometry.
For orientation: In flow cytometry, cells or beads pass a laser one at a time.

Test [1] has as its system primary NK cells. Nature of the test: Antigen-2 CAR expression of primary NK cells transduced after statin pre-treatment. Conditions: primary NK cells pre-treated with 5 μM, MOI of 5, FIG. 3B. On the procedure: Lentiviral transduction was performed on day 5 or 6. NK cells were resuspended to determine if cell number had changed from day 0. Lentiviral particles were thawed on ice. Once thawed, lentiviral particles were taken out from ice and equilibrated to room temperature before being added to the activated NK cells. The amount of virus needed for transducing cells was determined based on desired multiplicity of infection (MOI). Once the NK cells were transduced with lentiviral particles, they were returned to the incubator at 37° C. and 5% CO2.
Cells were monitored as early as day 3-4 post transduction for surface CAR expression. The cell number of NK cells was determined. 1×10^5 NK cells were collected from each sample and transferred into wells of a microtiter plate. The cells in each well of the microtiter plate were washed twice with 200 μL FACS Buffer each time. The wells were stained with 100 μL staining buffer containing appropriate CAR detection antibodies. The plate was incubated for at least 30 minutes at 4° C. without light. The cells were then washed twice with 150 μL FACS Buffer each time and were centrifuged at 400×g for 4 minutes at room temperature. The CAR expression on NK cells was then measured using flow cytometry analysis. […]

The next test concerns LDLR. Nature of the test: LDLR expression of primary γδ T cells pre-treated with statin. The following applies: different concentrations, compared to lentiviral vector only-transduced cells, FIGS. 10A-10B. As for the experimental part: Next, the effect of pre-treatment with statin in lentiviral transduction of primary γδ T cells on LDLR expression was evaluated. Three primary γδ T cells samples from healthy donors were expanded with Zol for five days, pre-treated in the presence or absence of Rosuvastatin and Atorvastatin at different concentrations, as described above, and evaluated for LDLR expression.

The subject of test [2] is low-density lipoprotein receptor (LDLR). The experiment in a line: LDLR expression on primary NK cells after statin pre-treatment during activation. Conditions: 5 μM during activation, DMSO negative control, n=3, FIG. 3A. As for the experimental part:
To test whether statins can improve CAR transduction efficiency or surface CAR stability, cells were pre-treated with 5 μM Rosuvastatin (Cayman Chemical, cat #12029) during the activation prior to the transduction. Then, activated primary NK cells were transduced with a Antigen-2 CAR at MOI of 5. Cells pre-treated with DMSO were included as a negative control.

In test [3] the test system is primary NK cells. Nature of the test: Surface CAR expression of primary NK cells transduced with Antigen-1 CAR lentivirus with or without PDK1 inhibitor (flow cytometry). The following applies: BX795 0.5 to 7.5 μM, compared to cells transduced without BX795, n=2, FIGS. 2B-2C. As for the experimental part:
NK cells were first activated in preparation of the transduction. One day 0, 0.5-1×10^6 NK cells per well were distributed in a 24-well plate.
Loaded Anti-Biotin MACSiBead particles (Miltenyi Biotech, Cat #130-094-483) for NK cell activation were resuspended thoroughly and were transferred to a suitable tube at the amount of 5 μL (5×10^5 loaded Anti-Biotin MACSiBead particles) per 1×10^6 NK cells. 100 μL culture medium was added to the loaded Anti-Biotin MACSiBead particles. The mixture was centrifuged at 300×g for 5 minutes so that the beads were washed prior to being added to the plated NK cells. […]
Lentiviral transduction was performed on day 5 or 6. […] The amount of virus needed for transducing cells was determined based on desired multiplicity of infection (MOI). […]
Cells were monitored as early as day 3-4 post transduction for surface CAR expression. The cell number of NK cells was determined. […] The CAR expression on NK cells was then measured using flow cytometry analysis.
To test whether PDK1 inhibitors can improve CAR transduction efficiency or surface CAR stability, primary NK cells were activated and transduced with a Antigen-1 CAR in the presence or absence of an PDK1 inhibitor, BX795 (InvivoGen, cat #tlrl-bx7), at concentrations varying from 0.5 to 7.5 μM. […] Surface CAR expression was monitored at regular intervals using an anti-myc tag AF647 antibody (Cell Signaling, Cat #2233, 1:200).

For `CC(C)c1nc(N(C)S(C)(=O)=O)nc(-c2ccc(F)cc2)c1/C=C/[C@@H](O)C[C@@H](O)CC(=O)O` [Rosuvastatin], the “frequency of Vγ9Vδ2 cells” value in the test on primary γδ T cells is reported as “did not change the frequency of Vγ9Vδ2 cells”. Also, the “Antigen-2 CAR expression” value in the test on primary NK cells [1] is given as “increased Antigen-2 CAR expression”. In addition, the LDLR expression result in the test with LDLR is on record as “increased the LDLR expression”. Also, the “LDLR expression on the cells” value in test [2] is “increased levels of LDLR expression”.

For `O=C(NCCCNc1nc(Nc2cccc(NC(=O)N3CCCC3)c2)ncc1I)c1cccs1` [BX795], the “surface CAR stability” value in the test with primary NK cells [3] was “improved surface CAR stability in a dose dependent manner”.

Take `CC(C)c1c(C(=O)Nc2ccccc2)c(-c2ccccc2)c(-c2ccc(F)cc2)n1CC[C@@H](O)C[C@@H](O)CC(=O)O` [Atorvastatin]: the “frequency of Vγ9Vδ2 cells” value in the test with primary γδ T cells is given as “did not change the frequency of Vγ9Vδ2 cells”. Further, the LDLR expression entry with LDLR is “increased the LDLR expression”.
